# Measured values as given in article PMC6422671 (British Journal of Clinical Pharmacology, 2019).
# Assay: Vital signs; data mean (standard deviation)
# Type: in vivo, healthy men
# From the text: Data are mean (standard deviation)
structure (smiles),measurement,setting,value
C[C@@H](N)c1cc(Cl)ccc1Cn1c(=S)[nH]c(=O)c2[nH]ccc21 [AZD4831],DBP,"5 mg fasted, 0.5 h",71 (7) mmHg
same,Pulse,"5 mg fasted, 0.5 h",61 (4) bpm
same,SBP,"5 mg fasted, 0.5 h",116 (10) mmHg
same,DBP,"5 mg fasted, 1 h",71 (7) mmHg
same,Pulse,"5 mg fasted, 1 h",61 (5) bpm
same,SBP,"5 mg fasted, 1 h",114 (8) mmHg
same,DBP,"5 mg fasted, 2 h",71 (5) mmHg
same,Pulse,"5 mg fasted, 2 h",60 (4) bpm
same,SBP,"5 mg fasted, 2 h",119 (10) mmHg
same,DBP,"5 mg fasted, 3 h",72 (9) mmHg
same,Pulse,"5 mg fasted, 3 h",60 (4) bpm
same,SBP,"5 mg fasted, 3 h",119 (12) mmHg
same,DBP,"5 mg fasted, 4 h",71 (7) mmHg
same,Pulse,"5 mg fasted, 4 h",64 (5) bpm
same,SBP,"5 mg fasted, 4 h",118 (9) mmHg
same,DBP,"5 mg fasted, 6 h",69 (8) mmHg
same,Pulse,"5 mg fasted, 6 h",68 (5) bpm
same,SBP,"5 mg fasted, 6 h",118 (11) mmHg
same,DBP,"5 mg fasted, 8 h",68 (5) mmHg
same,Pulse,"5 mg fasted, 8 h",62 (5) bpm
same,SBP,"5 mg fasted, 8 h",117 (9) mmHg
same,DBP,"5 mg fasted, 12 h",69 (9) mmHg
same,Pulse,"5 mg fasted, 12 h",68 (4) bpm
same,SBP,"5 mg fasted, 12 h",118 (13) mmHg
same,DBP,"5 mg fasted, 24 h",69 (5) mmHg
same,Pulse,"5 mg fasted, 24 h",59 (5) bpm
same,SBP,"5 mg fasted, 24 h",112 (5) mmHg
same,DBP,"5 mg fasted, 36 h",69 (4) mmHg
same,Pulse,"5 mg fasted, 36 h",68 (5) bpm
same,SBP,"5 mg fasted, 36 h",119 (6) mmHg
same,DBP,"5 mg fasted, 48 h",70 (4) mmHg
same,Pulse,"5 mg fasted, 48 h",64 (9) bpm
same,SBP,"5 mg fasted, 48 h",116 (8) mmHg
same,DBP,"15 mg fasted, 0.5 h",68 (4) mmHg
same,Pulse,"15 mg fasted, 0.5 h",58 (9) bpm
same,SBP,"15 mg fasted, 0.5 h",115 (7) mmHg
same,DBP,"15 mg fasted, 1 h",67 (4) mmHg
same,Pulse,"15 mg fasted, 1 h",61 (9) bpm
same,SBP,"15 mg fasted, 1 h",115 (8) mmHg
same,DBP,"15 mg fasted, 2 h",65 (2) mmHg
same,Pulse,"15 mg fasted, 2 h",58 (6) bpm
same,SBP,"15 mg fasted, 2 h",113 (4) mmHg
same,DBP,"15 mg fasted, 3 h",65 (3) mmHg
same,Pulse,"15 mg fasted, 3 h",58 (4) bpm
same,SBP,"15 mg fasted, 3 h",112 (5) mmHg
same,DBP,"15 mg fasted, 4 h",66 (6) mmHg
same,Pulse,"15 mg fasted, 4 h",59 (8) bpm
same,SBP,"15 mg fasted, 4 h",113 (5) mmHg
same,DBP,"15 mg fasted, 6 h",65 (2) mmHg
same,Pulse,"15 mg fasted, 6 h",68 (9) bpm
same,SBP,"15 mg fasted, 6 h",119 (9) mmHg
same,DBP,"15 mg fasted, 8 h",64 (2) mmHg
same,Pulse,"15 mg fasted, 8 h",63 (11) bpm
same,SBP,"15 mg fasted, 8 h",116 (7) mmHg
same,DBP,"15 mg fasted, 12 h",64 (4) mmHg
same,Pulse,"15 mg fasted, 12 h",69 (10) bpm
same,SBP,"15 mg fasted, 12 h",119 (5) mmHg
same,DBP,"15 mg fasted, 24 h",67 (2) mmHg
same,Pulse,"15 mg fasted, 24 h",62 (7) bpm
same,SBP,"15 mg fasted, 24 h",113 (4) mmHg
same,DBP,"15 mg fasted, 36 h",63 (4) mmHg
same,Pulse,"15 mg fasted, 36 h",73 (9) bpm
same,SBP,"15 mg fasted, 36 h",118 (5) mmHg
same,DBP,"15 mg fasted, 48 h",66 (5) mmHg
same,Pulse,"15 mg fasted, 48 h",65 (12) bpm
same,SBP,"15 mg fasted, 48 h",114 (7) mmHg
same,DBP,"45 mg fasted, 0.5 h",73 (14) mmHg
same,Pulse,"45 mg fasted, 0.5 h",59 (11) bpm
same,SBP,"45 mg fasted, 0.5 h",122 (13) mmHg
same,DBP,"45 mg fasted, 1 h",72 (14) mmHg
same,Pulse,"45 mg fasted, 1 h",57 (10) bpm
same,SBP,"45 mg fasted, 1 h",125 (12) mmHg
same,DBP,"45 mg fasted, 2 h",69 (15) mmHg
same,Pulse,"45 mg fasted, 2 h",59 (10) bpm
same,SBP,"45 mg fasted, 2 h",122 (17) mmHg
same,DBP,"45 mg fasted, 3 h",70 (13) mmHg
same,Pulse,"45 mg fasted, 3 h",60 (8) bpm
same,SBP,"45 mg fasted, 3 h",120 (14) mmHg
same,DBP,"45 mg fasted, 4 h",69 (16) mmHg
same,Pulse,"45 mg fasted, 4 h",58 (8) bpm
same,SBP,"45 mg fasted, 4 h",121 (13) mmHg
same,DBP,"45 mg fasted, 6 h",66 (7) mmHg
same,Pulse,"45 mg fasted, 6 h",61 (10) bpm
same,SBP,"45 mg fasted, 6 h",120 (9) mmHg
same,DBP,"45 mg fasted, 8 h",68 (15) mmHg
same,Pulse,"45 mg fasted, 8 h",59 (11) bpm
same,SBP,"45 mg fasted, 8 h",116 (11) mmHg
same,DBP,"45 mg fasted, 12 h",68 (11) mmHg
same,Pulse,"45 mg fasted, 12 h",63 (12) bpm
same,SBP,"45 mg fasted, 12 h",124 (12) mmHg
same,DBP,"45 mg fasted, 24 h",71 (11) mmHg
same,Pulse,"45 mg fasted, 24 h",58 (11) bpm
same,SBP,"45 mg fasted, 24 h",118 (9) mmHg
same,DBP,"45 mg fasted, 36 h",66 (14) mmHg
same,Pulse,"45 mg fasted, 36 h",66 (11) bpm
same,SBP,"45 mg fasted, 36 h",121 (9) mmHg
same,DBP,"45 mg fasted, 48 h",69 (11) mmHg
same,Pulse,"45 mg fasted, 48 h",64 (13) bpm
same,SBP,"45 mg fasted, 48 h",120 (10) mmHg
same,DBP,"45 mg fed, 0.5 h",66 (16) mmHg
same,Pulse,"45 mg fed, 0.5 h",63 (6) bpm
same,SBP,"45 mg fed, 0.5 h",121 (15) mmHg
same,DBP,"45 mg fed, 1 h",65 (11) mmHg
same,Pulse,"45 mg fed, 1 h",66 (11) bpm
same,SBP,"45 mg fed, 1 h",122 (16) mmHg
same,DBP,"45 mg fed, 2 h",66 (18) mmHg
same,Pulse,"45 mg fed, 2 h",64 (9) bpm
same,SBP,"45 mg fed, 2 h",120 (12) mmHg
same,DBP,"45 mg fed, 3 h",69 (11) mmHg
same,Pulse,"45 mg fed, 3 h",64 (9) bpm
same,SBP,"45 mg fed, 3 h",125 (13) mmHg
same,DBP,"45 mg fed, 4 h",67 (15) mmHg
same,Pulse,"45 mg fed, 4 h",62 (10) bpm
same,SBP,"45 mg fed, 4 h",123 (17) mmHg
same,DBP,"45 mg fed, 6 h",70 (15) mmHg
same,Pulse,"45 mg fed, 6 h",64 (8) bpm
same,SBP,"45 mg fed, 6 h",120 (7) mmHg
same,DBP,"45 mg fed, 8 h",71 (17) mmHg
same,Pulse,"45 mg fed, 8 h",59 (9) bpm
same,SBP,"45 mg fed, 8 h",121 (14) mmHg
same,DBP,"45 mg fed, 12 h",69 (15) mmHg
same,Pulse,"45 mg fed, 12 h",63 (10) bpm
same,SBP,"45 mg fed, 12 h",124 (8) mmHg
same,DBP,"45 mg fed, 24 h",69 (12) mmHg
same,Pulse,"45 mg fed, 24 h",57 (9) bpm
same,SBP,"45 mg fed, 24 h",114 (9) mmHg
same,DBP,"45 mg fed, 36 h",71 (15) mmHg
same,Pulse,"45 mg fed, 36 h",62 (9) bpm
same,SBP,"45 mg fed, 36 h",127 (9) mmHg
same,DBP,"45 mg fed, 48 h",73 (13) mmHg
same,Pulse,"45 mg fed, 48 h",57 (4) bpm
same,SBP,"45 mg fed, 48 h",116 (7) mmHg
same,DBP,"135 mg fasted, 0.5 h",69 (5) mmHg
same,Pulse,"135 mg fasted, 0.5 h",59 (6) bpm
same,SBP,"135 mg fasted, 0.5 h",113 (8) mmHg
same,DBP,"135 mg fasted, 1 h",70 (4) mmHg
same,Pulse,"135 mg fasted, 1 h",61 (9) bpm
same,SBP,"135 mg fasted, 1 h",110 (5) mmHg
same,DBP,"135 mg fasted, 2 h",68 (6) mmHg
same,Pulse,"135 mg fasted, 2 h",59 (7) bpm
same,SBP,"135 mg fasted, 2 h",113 (10) mmHg
same,DBP,"135 mg fasted, 3 h",68 (6) mmHg
same,Pulse,"135 mg fasted, 3 h",59 (6) bpm
same,SBP,"135 mg fasted, 3 h",113 (7) mmHg
same,DBP,"135 mg fasted, 4 h",69 (6) mmHg
same,Pulse,"135 mg fasted, 4 h",60 (7) bpm
same,SBP,"135 mg fasted, 4 h",116 (8) mmHg
same,DBP,"135 mg fasted, 6 h",66 (6) mmHg
same,Pulse,"135 mg fasted, 6 h",67 (8) bpm
same,SBP,"135 mg fasted, 6 h",113 (10) mmHg
same,DBP,"135 mg fasted, 8 h",70 (6) mmHg
same,Pulse,"135 mg fasted, 8 h",62 (4) bpm
same,SBP,"135 mg fasted, 8 h",113 (8) mmHg
same,DBP,"135 mg fasted, 12 h",69 (7) mmHg
same,Pulse,"135 mg fasted, 12 h",70 (5) bpm
same,SBP,"135 mg fasted, 12 h",119 (9) mmHg
same,DBP,"135 mg fasted, 24 h",69 (3) mmHg
same,Pulse,"135 mg fasted, 24 h",65 (9) bpm
same,SBP,"135 mg fasted, 24 h",115 (7) mmHg
same,DBP,"135 mg fasted, 36 h",67 (6) mmHg
same,Pulse,"135 mg fasted, 36 h",73 (7) bpm
same,SBP,"135 mg fasted, 36 h",118 (12) mmHg
same,DBP,"135 mg fasted, 48 h",71 (5) mmHg
same,Pulse,"135 mg fasted, 48 h",67 (9) bpm
same,SBP,"135 mg fasted, 48 h",114 (10) mmHg
same,DBP,"405 mg fasted, 0.5 h",70 (7) mmHg
same,Pulse,"405 mg fasted, 0.5 h",61 (8) bpm
same,SBP,"405 mg fasted, 0.5 h",116 (9) mmHg
same,DBP,"405 mg fasted, 1 h",69 (8) mmHg
same,Pulse,"405 mg fasted, 1 h",61 (8) bpm
same,SBP,"405 mg fasted, 1 h",114 (6) mmHg
same,DBP,"405 mg fasted, 2 h",68 (6) mmHg
same,Pulse,"405 mg fasted, 2 h",58 (8) bpm
same,SBP,"405 mg fasted, 2 h",114 (9) mmHg
same,DBP,"405 mg fasted, 3 h",67 (5) mmHg
same,Pulse,"405 mg fasted, 3 h",57 (6) bpm
same,SBP,"405 mg fasted, 3 h",112 (6) mmHg
same,DBP,"405 mg fasted, 4 h",69 (7) mmHg
same,Pulse,"405 mg fasted, 4 h",60 (8) bpm
same,SBP,"405 mg fasted, 4 h",115 (5) mmHg
same,DBP,"405 mg fasted, 6 h",66 (5) mmHg
same,Pulse,"405 mg fasted, 6 h",63 (8) bpm
same,SBP,"405 mg fasted, 6 h",113 (4) mmHg
same,DBP,"405 mg fasted, 8 h",67 (5) mmHg
same,Pulse,"405 mg fasted, 8 h",59 (7) bpm
same,SBP,"405 mg fasted, 8 h",113 (5) mmHg
same,DBP,"405 mg fasted, 12 h",67 (4) mmHg
same,Pulse,"405 mg fasted, 12 h",63 (8) bpm
same,SBP,"405 mg fasted, 12 h",114 (8) mmHg
same,DBP,"405 mg fasted, 24 h",71 (2) mmHg
same,Pulse,"405 mg fasted, 24 h",60 (7) bpm
same,SBP,"405 mg fasted, 24 h",113 (4) mmHg
same,DBP,"405 mg fasted, 36 h",68 (4) mmHg
same,Pulse,"405 mg fasted, 36 h",65 (5) bpm
same,SBP,"405 mg fasted, 36 h",118 (4) mmHg
same,DBP,"405 mg fasted, 48 h",71 (7) mmHg
same,Pulse,"405 mg fasted, 48 h",65 (9) bpm
same,SBP,"405 mg fasted, 48 h",118 (4) mmHg
same,changes in vital signs or electrocardiography parameters,in vivo,no clinically significant changes
